Paper PMC9780888, “4-Isobutylmethcathinone—A Novel Synthetic Cathinone with High In Vitro Cytotoxicity and Strong Receptor Binding Preference of Enantiomers” (Pharmaceuticals, 2022)
Counter-ions that a name gives are not always drawn. Like-named read-outs stand apart in the source and are kept apart here.

Tests used:
HEK 293T = experiment: WST-1 viability assay, HEK 293T cells; type: cell-based, human
Description: (§1) Based on the novelty of the IMBcat compound, we aimed to evaluate its in vitro cytotoxicity in selected model cell lines as well as to determine the toxicity of the IBMcat enantiomers, since both the chemical structure and chirality of compounds could play a role in their bioactivity (Table 2). The cytotoxic profile of the IBMcat was determined by a WST-1 viability assay after 72-h treatment. For this purpose, cell lines derived from distinct tissues, often affected by NPSs, were chosen, i.e., cells of kidney, hepatic, neural, urinary, and intestinal origin as well as keratinocytes and primary fibroblasts (HEK 293T, Hep G2, HMC-3, SH-SY5Y, 5637, CaCo-2, HaCaT, MRC-5, and BJ, respectively). The cytotoxicity of IBMcat and its enantiomers was concentration- and cell-line dependent, the IC50 values, which were in the micromolar range, are given in Table 2. […] This was followed by embryonic kidney cells HEK 293T (immortalized), in which the toxicity ranged between a concentration of 123 and 192 µM.
In this study, the following cell lines were used: HEK 293T, Hep G2, HMC-3, SH-SY5Y, 5637, CaCo-2, HaCaT, MRC-5, BJ, and L929. The cells lines were of the following origin: human embryonic immortalized kidney cells (HEK 293T), cells from hepatocellular carcinoma (Hep G2), microglial immortalized cells (HMC-3), cells from neuroblastoma (SH-SY5Y), the urinary bladder carcinoma (5637), colon carcinoma (CaCo-2), immortalized keratinocytes (HaCaT), noncancerous lung fibroblasts (MRC-5), fibroblasts from the foreskin (BJ) and mouse immortalized fibroblasts (L929; frequently used for cytotoxicity evaluation). The selected cell lines were chosen so that not only primary noncancerous cells are evaluated but also cells derived from tissues, which are the most often affected by novel synthetic drugs, i.e., kidney, liver, urinary bladder, and nervous tissue. Except for L929 and MRC-5 which were supplied by Sigma-Aldrich, the rest of the cell lines were purchased from the American Tissue Culture Collection (ATCC). […]
(§2) The cytotoxicity of IBMCat was evaluated in vitro by using a WST-1 viability assay (Sigma-Aldrich, Saint Louis, MO, USA) based on the transformation of a tetrazolium salt into colored formazan in metabolically active cells. […] After 72 h of additional incubation of the cells, their viability was determined by WST-1. […] The cells were incubated for 2 h, after which absorbance of the raised formazan was measured spectrophotometrically at 450 nm (reference wavelength of 630 nm) using a UV-Vis spectrometer (Bio-Rad Laboratories, Hercules, CA, USA). […] The half-maximal inhibitory concentrations (IC50) were calculated from the measured dose–response curves by AAT Bioquest.

HMC-3 = experiment: WST-1 viability assay, HMC-3 cells; type: cell-based, human; conditions: HMC-3, 72 h incubation, WST-1, four replicates
Description: as §1
(§3) In this study, the following cell lines were used: HEK 293T, Hep G2, HMC-3, SH-SY5Y, 5637, CaCo-2, HaCaT, MRC-5, BJ, and L929. […] The selected cell lines were chosen so that not only primary noncancerous cells are evaluated but also cells derived from tissues, which are the most often affected by novel synthetic drugs, i.e., kidney, liver, urinary bladder, and nervous tissue. […]
as §2

L929 = experiment: WST-1 viability assay, L929 cells; type: cell-based, mouse; conditions: L929, 72 h incubation, WST-1, four replicates
Description: as §1, §3, §2

[1] = Homo sapiens, 72 h incubation, WST-1, four replicates, read-out: IC50 ± SD

| Structure (SMILES) | IC50 (HEK 293T; Homo sapiens, 72 h, racemate and enantiomers, read-out: toxicity (IC50) range) | IC50 (HEK 293T; [1]) | IC50 (HMC-3; Homo sapiens, HMC3) | IC50 (L929; Mus musculus) | IC50 (HEK 293T; 72 h incubation, WST-1, four replicates, read-out: IC50 ± SD) | IC50 (HMC-3) | IC50 (L929) |
| --- | --- | --- | --- | --- | --- | --- | --- |
| CNC(C)C(=O)c1ccc(CC(C)C)cc1.Cl (stereo not shown) [IBMcat, 4-isobutylmethcathinone hydrochloride] | 123 to 192 µM | 123 ± 6 µM | 61 ± 2 µM | 36 ± 4 µM |  |  |  |
| CN[C@@H](C)C(=O)c1ccc(CC(C)C)cc1 [S-IBMCat, (S)-4-isobutylmethcathinone hydrochloride] |  | 192 ± 2 µM | 64 ± 1 µM | 33 ± 5 µM |  |  |  |
| CN[C@H](C)C(=O)c1ccc(CC(C)C)cc1 [R-IBMCat] |  |  |  |  | 185 ± 5 µM | 65 ± 2 µM | 39 ± 2 µM |
